Source: patent US11236055B2 (Venenum Biodesign, LLC, priority 2016, dated 2022)

Experiments:
human TGR5 receptor = target: T1, human TGR5 receptor (Homo sapiens, UniProt Q8TDU6); test: Human TGR5 cAMP production assay; format: cell-based; details: human TGR5, luminescent cAMP assay; coded A-D; read-out: Human TGR5 Lum. cAMP Activity (EC50)
T1 construct: host or cells: CHO-K1 (hTGR5-CHO cells)
T1 sequence (Q8TDU6 1-330): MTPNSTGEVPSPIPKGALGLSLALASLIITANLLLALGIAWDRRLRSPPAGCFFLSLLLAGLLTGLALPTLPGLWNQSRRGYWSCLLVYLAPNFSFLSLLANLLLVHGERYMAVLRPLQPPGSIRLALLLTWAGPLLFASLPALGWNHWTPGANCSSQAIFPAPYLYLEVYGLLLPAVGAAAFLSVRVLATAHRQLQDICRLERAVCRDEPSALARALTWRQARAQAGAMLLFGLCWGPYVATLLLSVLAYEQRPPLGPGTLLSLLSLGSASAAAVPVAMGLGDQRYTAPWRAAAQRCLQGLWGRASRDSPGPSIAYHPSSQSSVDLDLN
Description: Human TGR5 cAMP Production Assay
We evaluated the Compounds of the present invention for their ability to induce cAMP production using CHO-K1 cells overexpressing the human TGR5 receptor. CHO-K1 cells stably expressing human TGR5 receptor (accession number NM_001077194.1 (hTGR5) (i.e., hTGR5-CHO cells) were purchased from DiscoveRx Corporation (Fremont, Calif.). hTGR5-CHO cells were grown in Ham's F-12 media supplemented with 10% Fetal Bovine Serum, 1% Penicillin-Streptomycin, 2 mM L-Alanine L-Glutamine (Glutamax), and 800 μg/mL Geneticin selection. The cAMP production assay was performed using DiscoveRx's cAMP XS+ kit (Catalog No. 90-0075XL) following the manufacturer's recommended protocol. Briefly, hTGR5-CHO cells were harvested using non-enzymatic cell dissociation buffer (Sigma-Aldrich, St. Louis, Mo.) and 1×10^6 cells were combined in Phosphate-Buffered Saline (PBS) to a final volume of 496 μL to which 4 μL of 125 mM IBMX (Sigma-Aldrich, St. Louis, Mo.) was added. 500 μL of cAMP antibody solution was added to the harvested cells and incubated at room temperature for 20 min.
Test compounds were serially diluted (half-log dilutions) in DMSO and then further diluted 1:50 in PBS, 10 mM HEPES buffer. 2 μL of serially diluted compound was added to a 384-well low volume plate (Greiner; cat #784075) and centrifuged briefly. 2 μL of the cell/cAMP antibody mixture was then added to each compound-containing well and allowed to incubate at room temperature for one hour. Following incubation, the XS+ kits' ED/Lysis/CL Substrate Working Solution was prepared following the manufacturer's recommended protocol and 4 μL was added to each well of the plate. The plate was then incubated for one hour at room temperature. Following incubation, 4 μL of Enzyme Acceptor reagent was added to the plate and allowed to incubate overnight at room temperature. Luminescent signal was then detected using the Viewlux instrument (Perkin-Elmer, Waltham, Mass.).
(§1) In Table 33, EC50 values for both human and mouse cells were determined according to the TGR5 cAMP assays described above.

mouse TGR5 receptor = target: T2, mouse TGR5 receptor (Mus musculus, UniProt Q80SS6); test: Mouse TGR5 cAMP production assay (HTRF, Cisbio cAMP HiRange); format: cell-based; details: HEK293-EBNA cells overexpressing mouse TGR5, HTRF cAMP HiRange; coded A-D
T2 construct: expressed in transfected cells; host or cells: HEK293-EBNA (293 c18, ATCC CRL10852), Hygromycin B selection
T2 sequence (Q80SS6 1-329): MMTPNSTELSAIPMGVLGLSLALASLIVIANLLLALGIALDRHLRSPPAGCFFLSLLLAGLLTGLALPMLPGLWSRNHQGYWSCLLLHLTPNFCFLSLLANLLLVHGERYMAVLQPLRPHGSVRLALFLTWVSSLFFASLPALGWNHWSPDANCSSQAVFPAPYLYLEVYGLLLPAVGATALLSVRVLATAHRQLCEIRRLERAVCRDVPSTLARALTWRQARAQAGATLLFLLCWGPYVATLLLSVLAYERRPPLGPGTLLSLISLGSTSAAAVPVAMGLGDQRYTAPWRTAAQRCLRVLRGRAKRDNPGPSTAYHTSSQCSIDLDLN
Description: Mouse TGR5 cAMP Production Assay
We evaluated compounds of the present invention for their ability to induce cAMP production in HEK-EBNA cells overexpressing the mouse TGR5 receptor. Human embryonic kidney cells (HEK293-EBNA) stably expressing mouse TGR5 receptor were established using the following procedure. Specifically, a commercially-obtained gene encoding mouse TGR5 (accession number BC116914) from Thermo Scientific (Waltham, Mass.) was cloned into an episomal expression vector. The resulting expression plasmid was then transfected into 293 c18 (ATCC® CRL10852™) cells, which express the Epstein-Barr virus nuclear antigen EBNA1 and can support the replication of episomal vectors. Selection for the plasmid was maintained with Hygromycin B. Cells were cultured and maintained in DMEM (Sigma; cat #6429) supplemented with 10% Fetal Bovine Serum, 1% penicillin/streptomycin, 2 mM L-alanine L-glutamine (GlutaMax), and 250 μg/mL Hygromycin.
2. HTRF cAMP Production Assay
In this second cAMP production assay, the cAMP production was measured in 384-well low volume plates (Greiner; cat #784075) using the Cisbio™ cAMP HiRange HTRF Assay Kit (Cisbio) according to the manufacturer's protocol.
Briefly, compounds were initially diluted in 100% DMSO (12-point serial dilution by half logs) in a 96-well plate and then were further diluted 1:50 in PBS containing 10 mM HEPES. 5 μL were transferred to the 384-well assay plate in duplicate. HEK293-EBNA cells stably overexpressing mouse TGR5 were harvested using non-enzymatic cell dissociation buffer (Sigma), spun down, then resuspended in serum-free DMEM with 500 μM IBMX at a density of 500,000 cells/mL. 5 μL of cell suspension was transferred to each well of the 384-well assay plate already containing compound. The plate was covered and incubated at room temperature for 1 hour. The d2-cAMP and anti-cAMP Ab-cryptate stock solutions were prepared as per kit instructions. Then 5 μL of each conjugate (d2 and cryptate) were added to each well of the assay plate. The plate was covered and incubated at room temperature for 1 hour. The plate was read on an Envision™ plate reader (Perkin Elmer).
as §1

| Structure (SMILES) | EC50 (human TGR5 receptor) | EC50 (mouse TGR5 receptor) |
| --- | --- | --- |
| Cc1cnccc1-c1cccc([C@H](CC(=O)N(C)C)NS(=O)(=O)c2ccccc2C(F)(F)F)c1 [Compound 5BB, (S)-N,N-dimethyl-3-(3-(3-methylpyridin-4-yl)phenyl)-3-(2-(trifluoromethyl)phenylsulfonamido)propanamide] | 100 to 999 nM | 100 to 999 nM |
| Cc1cnccc1-c1cccc([C@H](CCCC#N)NS(=O)(=O)c2ccccc2C(F)(F)F)c1 [Compound 5BC, (S)-N-(4-cyano-1-(3-(3-methylpyridin-4-yl)phenyl)-butyl)-2-(trifluoromethyl)benzenesulfonamide] | < 100 nM | < 100 nM |
| Cc1cnccc1-c1cccc(CCNS(=O)(=O)c2ccccc2C(F)(F)F)c1 [Compound 5BD, N-(3-(3-methylpyridin-4-yl)phenethyl)-2-(trifluoromethyl)benzenesulfonamide] | 100 to 999 nM | 1000 to 30000 nM |
| COC(=O)c1cnccc1-c1cccc(C(C)(C)NS(=O)(=O)c2ccccc2C(F)(F)F)c1 [Compound 6, Methyl 4-(3-(2-(2-(trifluoromethyl)phenylsulfonamido)propan-2-yl)phenyl)nicotinate] | < 100 nM | 1000 to 30000 nM |
| Cc1cncnc1-c1cccc(C(C)(C)NS(=O)(=O)c2ccccc2C(F)(F)F)c1 [Compound 6AA, N-(2-(3-(5-methylpyrimidin-4-yl)phenyl)propan-2-yl)-2-(trifluoromethyl)benzenesulfonamide] | 1000 to 30000 nM | 1000 to 30000 nM |
| CN(C)c1cc(-c2cccc(C(C)(C)NS(=O)(=O)c3ccccc3C(F)(F)F)c2)ccn1 [Compound 6AB, N-(2-(3-(2-(dimethylamino)-pyridin-4-yl)phenyl)propan-2-yl)-2-(trifluoromethyl)benzenesulfonamide] | 1000 to 30000 nM | 1000 to 30000 nM |
| CCc1cnccc1-c1cccc([C@H](CCCC#N)NS(=O)(=O)c2ccccc2C(F)(F)F)c1 [Compound 6AC, (S)-N-(4-cyano-1-(3-(3-ethylpyridin-4-yl)phenyl)butyl)-2-(trifluoromethyl)benzenesulfonamide] | < 100 nM | < 100 nM |
| Cc1cnccc1-c1cccc(C(CCC#N)NS(=O)(=O)c2ccccc2C(F)(F)F)c1 (stereo not drawn) [Compound 6AD, N-(3-cyano-1-(3-(3-methylpyridin-4-yl)phenyl)-propyl)-2-(trifluoromethyl)benzenesulfonamide] | < 100 nM | 100 to 999 nM |
| Cc1cnsc1-c1cccc([C@H](C)NS(=O)(=O)c2cccc(Cl)c2C)c1 [Compound 7AA, (S)-3-chloro-2-methyl-N-(1-(3-(4-methylisothiazol-5-yl)-phenyl)ethyl)benzenesulfonamide] | 1000 to 30000 nM | > 30000 nM |
| Cc1nccc(-c2cccc([C@H](C)NS(=O)(=O)c3cccc(Cl)c3C)c2)c1C [Compound 7AB, (S)-3-chloro-N-(1-(3-(2,3-dimethylpyridin-4-yl)phenyl)ethyl)-2-methylbenzenesulfonamide] | 100 to 999 nM | 1000 to 30000 nM |
| Cc1cnccc1-c1cccc(C2(NS(=O)(=O)c3cccc(Cl)c3C)COC2)c1 [Compound 7AC, 3-chloro-2-methyl-N-(3-(3-(3-methylpyridin-4-yl)phenyl)oxetan-3-yl)benzenesulfonamide] | < 100 nM | < 100 nM |
| Cc1cnccc1-c1cccc([C@H](C)NS(=O)(=O)c2cccc(Cl)c2C)c1 [Compound 7] | < 100 nM | < 100 nM |
| CC(=O)Nc1cc(-c2cccc(C(C)(C)NS(=O)(=O)c3cccc(C(F)(F)F)c3)c2)ccn1 [Compound 9, N-(4-(3-(2-(3-(trifluoromethyl)phenylsulfonamido)propan-2-yl)phenyl)pyridin-2-yl)acetamide] | 1000 to 30000 nM | 1000 to 30000 nM |
| COc1cnccc1-c1cccc(C(C)(C)NS(=O)(=O)c2ccccc2N)c1 [Compound 10, 2-amino-N-(2-(3-(3-methoxypyridin-4-yl)phenyl)propan-2-yl)benzenesulfonamide] | 100 to 999 nM | 100 to 999 nM |
| Cc1cnccc1-c1cccc([C@H](C)NS(=O)(=O)c2ccccc2N)c1 [Compound 10AA, (S)-2-amino-N-(1-(3-(3-methylpyridin-4-yl)phenyl)ethyl)benzenesulfonamide] | 100 to 999 nM | 1000 to 30000 nM |
| CN(C)C(=O)c1cnccc1-c1cccc(C(C)(C)NS(=O)(=O)c2ccccc2C(F)(F)F)c1 [Compound 11, N,N-dimethyl-4-(3-(2-(2-(trifluoromethyl)phenylsulfonamido)propan-2-yl)phenyl)nicotinamide] | 1000 to 30000 nM | 1000 to 30000 nM |
| Cc1c(Cl)cccc1S(=O)(=O)N[C@@H](C)c1cccc(-n2ccncc2=O)c1 [Compound 12, (S)-3-chloro-2-methyl-N-(1-(3-(2-oxopyrazin-1(2H)-yl)phenyl)ethyl)benzenesulfonamide] | 100 to 999 nM | 1000 to 30000 nM |
| Cc1c(Cl)cccc1S(=O)(=O)N(CCCC(=O)O)[C@@H](C)c1cccc(-c2ccncc2)c1 [Compound 14AD, (S)-4-(3-chloro-2-methyl-N-(1-(3-(pyridin-4-yl)phenyl)ethyl)phenylsulfonamido)butanoic acid] | 100 to 999 nM | 100 to 999 nM |
| Cc1nccc(-c2cccc([C@H](C)N(CCCC(=O)O)S(=O)(=O)c3cccc(Cl)c3C)c2)c1C [Compound 14AG, (S)-4-(3-chloro-N-(1-(3-(2,3-dimethylpyridin-4-yl)phenyl)ethyl)-2-methylphenylsulfonamido)butanoic acid] | 100 to 999 nM | 100 to 999 nM |
| Cc1cnccc1-c1cccc([C@H](C)N(CCCC(=O)O)S(=O)(=O)c2ccccc2C(F)(F)F)c1 [Compound 15, (S)-4-(N-(1-(3-(3-methylpyridin-4-yl)phenyl)ethyl)-2-(trifluoromethyl)phenylsulfonamido)-butanoic acid] | < 100 nM | 100 to 999 nM |
| CCc1cnccc1-c1cccc([C@H](C)N(CCCC(=O)O)S(=O)(=O)c2ccccc2C(F)(F)F)c1 [Compound 15AB, (S)-4-(N-(1-(3-(3-ethylpyridin-4-yl)phenyl)ethyl)-2-(trifluoromethyl)phenylsulfonamido)butanoic acid] | < 100 nM | < 100 nM |
